Key:
Assay type in all cases: cell-based, human
[1] = test system: NOX activity (superoxide formation in cells); assay: Nitroblue tetrazolium (NBT) test of intracellular and extracellular superoxide in cell cultures; conditions: DPI 10 μM, 'usually'
Experimental: The activity of the compounds according to the invention may be tested for their activity in the inhibition or reduction of formation of reactive oxygen species (ROS) from oxygen in cells. The activity of the compounds is tested in the following cell cultures by different techniques such as nitroblue tetrazolium, Amplex Red, Chemiluminescence (Luminol) and 2′,7′-dichlorodihydrofluorescein diacetate (H2DCF-DA) according to the protocols detailed below.
Human microglia cell line (HMC3, human microglia clone 3) (Janabi et al, 1995, Neurosci Lett 195:105) were cultured in MEM (Eagle's minimum essential medium) containing 10% FBS with 50 U/mL penicillin G sodium 50 μg/mL streptomycin sulfate, and incubated at 37° C. for 24 hours. IFN-γ (human IFN-γ, Roche. 11 040 596 001) was added to the culture medium for a final concentration of 10 ng/mL 24 h, before detection of O2^− formation. […]
Intracellular and extracellular superoxide was measured by a colorimetric technique using a quantitative nitroblue tetrazolium (NBT) test. SOD-inhibitable conversion of NBT to formazan, a fine blue precipitate, in the presence of superoxide anion was measured using Fluostar Optima spectrometer (BMG labtech). […] The absorption was measured at 630 nm. For calculation, the absorbance at 630 nm was normalized for each individual well. […] NOX activities were expressed as % of the activity in control cells. […]

NOX activity in HUVEC = assay: H2DCF-DA (DCF fluorescence) ROS measurement in TGF-β stimulated HUVEC; conditions: 'usually'
Experimental: Human Umbilical Vein Endothelial Cells (HUVEC)
HUVEC are cultured in endothelial basal medium supplemented with hydrocortisone (1 μg/mL, CalbioChem), bovine brain extract (12 μg/mL), gentamicin (50 μg/mL, CalbioChem), amphotericin B (50 ng/mL, CalBioChem EGF (10 ng/mL, and 10% FCS until the fourth passage. When the fifth passage was started, cells were cultured with a lower concentration of FCS (2%) in the absence of EGF, if not indicated otherwise. All experiments were done with cells of the fifth passage. The cells were incubated with OxLDL (oxidized low-density lipoprotein) or its buffer as control for 24 h, before detection of O2^− formation.
4. 2′,7′-dichlorodihydrofluorescein diacetate (H2DCF-DA)
HUVEC were plated on coverslips and made quiescent overnight in 0.5% BSA before stimulation with TGF-β. Cells were loaded for 10 minutes with 5 μM CM-H2DCFDA in phenol-red-free medium in the dark and then treated with TGF-β (R&D Systems) in the presence or absence of compounds according to the invention. […] DCF fluorescence was visualized at an excitation wavelength of 488 nm and emission at 515 to 540 nm. […] For calculation, the absorbance at […] was normalized to absorbance at […] for each individual well. […] NOX activities were expressed as % of the activity in control cells. […]

[2] = test system: NOX activity (ROS in cells); assay: Chemiluminescence (luminol) measurement of ROS in cells; conditions: 'usually'
Experimental: 3. Chemiluminescence (Luminol)
ROS was measured using the chemiluminescent probe luminol. Cells were cultured and plated as for Amplex Red except that the Amplex Red agent was replaced by 10 μg/mL luminol (Sigma 09235). Light emission was recorded continuously at 37° C. for 60 minutes using the luminescence function of the FluoStar Optima fluorescent plate reader. The mean of the four blank values was subtracted from each corrected value for each time point. NOX activities were expressed as % of the activity in control cells. Residual activity of DPI-treated cells was usually <10%.

[3] = test system: NOX activity in DMSO-differentiated HL60 cells; assay: Amplex Red measurement of extracellular hydrogen peroxide (NOX activity) in DMSO-differentiated HL60 cells; conditions: DPI 10 μM, 'usually'
Experimental: Human acute myeloid leukemia cell line HL-60 was cultured in RPMI 1640 (Invitrogen) supplemented with 10% heat-inactivated calf serum, 2 mM glutamine, 100 U/mL penicillin (Sigma), and 100 μg streptomycin (Sigma) at 37° C. under a humidified atmosphere of 5% CO2. HL60 differentiation to the neutrophil phenotype was triggered by adding Me2SO (final concentration 1.25% v/v for 6 days) to the culture medium.
Extracellular hydrogen peroxide was measured using Amplex UltraRed (Molecular Probes). Cells were trypsinized (1× Trypsin-EDTA), collected by centrifugation, and resuspended in HBSS supplemented with 1% glucose. Cells were seeded into black 96-well plates at a density of 50'000 cells in 200 μl testing buffer (HBSS 1% glucose containing 0.005 U/mL horseradish peroxidase (Roche) and 50 μM Amplex Red in the presence or absence of compounds according to the invention. As a control, DPI was included at a final concentration of 10 μM The plates were placed in the fluorescent Optima Fluorescent plate reader and kept at 37° C. during 20 min. Fluorescence was measured for […] with excitation and emission wavelengths of 544 and 590 nm respectively. NOX activities were expressed as % of the activity in control cells. […]
The table 1 below summarizes the percentage of inhibition of NOX activity as measured by Amplex Red using DMSO-differentiated HL60 cells as described above: […]

Measured: Residual activity of DPI-treated cells (NOX activity as % of the activity in control cells)

c1ccc([I+]c2ccccc2)cc1 [DPI, Diphenyliodonium]
< 10%: all assays above

Source: US8288432B2, “Tetrahydroindole derivatives as NADPH oxidase inhibitors” (Genkyotex SA, priority 2007, dated 2012)
